These results are taken from patent publication US10017492B2 (KANGPU BIOPHARMACEUTICALS, LTD., priority 2014, dated 2018).

For assay [1], the system named is Namalwa.CSN/70 cells (Burkitt lymphoma cells). Kind of assay: CTG cell proliferation assay, Namalwa.CSN/70 cells. The conditions noted are these: 72-120 hours, CellTiter-Glo, read-out: IC50 Value of Namalwa.CSN/70 Inhibition. The format is cell-based. As to the method: (§1) CTG Cell Proliferation Assay
(§2) Rec-1 cells (Mantle cell lymphoma cells) (ATCC, catalog number CRL-3004), Namalwa.CSN/70 cells (Burkitt lymphoma cells) (DSMZ, catalog number ACC-70), and WSU-DLCL-2 cells (diffuse large B cell lymphoma cells) (DSMZ, catalog number ACC-575) were seeded at (5-15)×10^3 per well to a 96-well plate with transparent bottom and white wall (Corning, catalog number CLS3903) containing specific medium. The plate was placed in an incubator and incubated for 24 hours at 37° C. under 5% CO2. Compounds were prepared as 150 mM stock solutions with DMSO (Sigma, catalog number 276855), and were diluted with the medium to the desired concentration (the final concentration of DMSO was 0.2%) and then were added to each well, incubated in an incubator for 72-120 hours at 37° C. under 5% CO2. Then, 100 μl CellTiter-Glo® cell activity assay reagent (Promega, catalog number G7570) was added to each well. Mixing proceeded for 10 minutes on a shaker to induce cytolysis. The 96-well plate was placed at room temperature for 10 minutes to make the luminous signal stable. A white base film was pasted at the bottom of the culture plate. EnSpire was used to test the plate.

Another assay has as its system TNF-α. Kind of assay: TNF-α activity inhibiting assay (LPS-stimulated peripheral blood, ELISA). Conditions: Homo sapiens, compound 100 nM, diluted peripheral blood of healthy volunteers, LPS 10 ng/mL, 6 hours, read-out: Inhibitory Rate on TNF-α (%). The class given is cell-based, human. As to the method:
TNF-α Activity Inhibiting Assay
Peripheral blood from healthy volunteers was collected and collected with EDTA anticoagulant tubes. After being diluted 5-fold with 1640 medium (Gibco, catalog number 11875-093, USA), the blood was added to 96-well cell culture plates (Costar, catalog number 3599, USA) and then treated with 10 μL solution of the compound of general formula (I) of the present invention in DMSO (Sigma, catalog number D2650, USA). The final concentration of the compound was 100 nM, and the final concentration of DMSO was 0.2%. After incubation for 60 minutes in an incubator at 37° C. under 5% CO2, 10 μL LPS (Sigma, catalog number L-2880, USA) was added to the reaction system, and the final concentration was 10 ng/mL. After further culturing for 6 hours in the incubator at 37° C. under 5% CO2, the supernatant was collected. The content of TNF-α was determined by ELISA (BD Biosciences, catalog number 555212, USA). Absorbance was detected at OD450 nm with a microplate reader, with OD 650 nm as reference. The control, a solution containing 0.2% DMSO medium, was as 0% inhibition. Raw data and standard curves were recorded. The four-parameter drug inhibition curve was plotted by XL-fit software and the inhibition rate of each compound was calculated, as shown in Table 1.
On the technique in general: ELISA stands for enzyme-linked immunosorbent assay.

Assay [2] relates to Rec-1 cells (Mantle cell lymphoma cells). Kind of assay: CTG cell proliferation assay, Rec-1 cells. The class given is cell-based. The conditions noted are these: Homo sapiens, Rec1, 72-120 hours, CellTiter-Glo, read-out: IC50 Value of Rec-1 Inhibition. How it is done:
as §1, §2
In general terms: ATP-based viability assays read luminescence as a measure of living cells.

Assay [3] relates to WSU-DLCL-2 cells (diffuse large B cell lymphoma cells). Kind of assay: CTG cell proliferation assay, WSU-DLCL-2 cells. The class given is cell-based. The conditions noted are these: Homo sapiens, WSUDLCL2, WSU-DLCL-2 cells, 72-120 hours, CellTiter-Glo; read-out: IC50 Value of WSU-DLCL2 Inhibition. As to the method:
as §1, §2

The subject of assay [4] is MM.1S cells (myeloma cells). Kind of assay: Cell proliferation assay (MTS), MM.1S myeloma cells. The class given is cell-based. Conditions: Homo sapiens, MM1.S, 72 hours, read-out: IC50 values of MMIS Inhibition. As to the method:
MM.1S cells (myeloma cells) (ATCC, catalog number CRL-2974) were seeded at 1.8×10^3 per well to a 96-well culture plate containing […] (Gibco, catalog number A10491-01), and were incubated in an incubator for 24 hours at 37° C. under 5% CO2. Compounds were prepared as 20 mM stock solutions with DMSO (Sigma, catalog number D2650), and were diluted with the medium to the desired concentration (the final concentration of DMSO was 0.5%) and then were added to each well, incubated in an incubator for 72 hours at 37° C. under 5% CO2. Then, 20 μL MTS (Promega, catalog number G3581) was added to each well, and further incubated for 1-4 hours in an incubator at 37° C. under 5% CO2. OD490 nm was detected with OD650 nm as reference. The control, a solution containing 0.5% DMSO medium, was as 0% inhibition. GraphPad Prism 5 was used, slope was allowed to change to make the dose-effect curve and IC50 values were calculated, shown in table 2 for details.

As for `[2H][C@]1(N2Cc3c(NCc4cccc(CN5CCOCC5)c4F)cccc3C2=O)CCC(=O)NC1=O` [Compound A400, (S)-3-deuterium-3-(4-((2-fluoro-3-(morpholinomethyl)benzyl)amino)-1-oxoisoindolin-2-yl)piperidine-2,6-dione], the IC50 in assay [1] is greater than 300000 nM; in assay [2] it was 100 to 400 nM; in assay [3] it was 401 to 300000 nM; in assay [4] it was less than 300 nM. Besides, the inhibition at 0.1 µM in the assay on TNF-α was no less than 50%.
For `[2H][C@@]1(N2Cc3c(N)cc(F)cc3C2=O)CCC(=O)NC1=O` [Compound I-32], in that order: greater than 300000 nM, 100 to 400 nM, greater than 300000 nM, no less than 300 nM and greater than 50%.
Consider `Nc1cc(F)cc2c1CN([C@@H]1CCC(=O)NC1=O)C2=O` [Compound I-30], for which the IC50 in assay [1] was greater than 300000 nM; in assay [2], less than 100 nM; in assay [3] it was greater than 300000 nM; in assay [4] it was less than 300 nM.
Regarding `O=C1CCC(N2Cc3c(OCc4cccc(CN5CCOCC5)c4F)cccc3C2=O)C(=O)N1` (stereo not drawn) [Compound A399, 3-(4-((2-fluoro-3-(morpholinomethyl)benzyl)oxy)-1-oxoisoindolin-2-yl)piperidine-2,6-dione], the IC50 in assay [1] was greater than 300000 nM; in assay [2], less than 100 nM; in assay [3], 401 to 300000 nM; in assay [4], less than 300 nM. Further, the inhibition at 0.1 µM in the assay with TNF-α is no less than 50%.
For `COc1ccc(COc2cccc3c2CN(C2CCC(=O)NC2=O)C3=O)c(F)c1` (stereo not drawn) [Compound A329, 3-(4-((2-fluoro-4-methoxybenzyl)oxy)-1-oxoisoindolin-2-yl)piperidine-2,6-dione], in that order: 401 to 300000 nM, less than 100 nM, greater than 300000 nM, less than 300 nM and no less than 50%.
With `O=C1CCC(N2Cc3c(OCc4ccc(CN5CCOCC5)cc4F)cc(F)cc3C2=O)C(=O)N1` (stereo not drawn) [Compound A407], the IC50 was greater than 300000 nM in assay [1], less than 100 nM in assay [2], 401 to 300000 nM in assay [3] and less than 300 nM in assay [4]. Further, the inhibition at 0.1 µM in the assay with TNF-α was less than 50%.
`[2H][C@]1(N2Cc3c(NCc4ccc(OC)cc4F)cccc3C2=O)CCC(=O)NC1=O` [Compound A356, (S)-3-deuterium-3-(4-((2-fluoro-4-methoxybenzyl)amino)-1-oxoisoindolin-2-yl)piperidine-2,6-dione]: the IC50 in assay [1] was 100 to 400 nM; in assay [2], less than 100 nM; in assay [3], 401 to 300000 nM; in assay [4], less than 300 nM. Further, the inhibition at 0.1 µM in the assay with TNF-α is no less than 50%.
As for `[2H][C@]1(N2Cc3c(OCc4ccc(CN5CCOCC5)cc4F)cccc3C2=O)CCC(=O)NC1=O` [Compound A406, (S)-3-deuterium-3-(4-((2-fluoro-4-(morpholinomethyl)benzyl)oxy)-1-oxoisoindolin-2-yl)piperidine-2,6-dione], the IC50 in assay [1] is greater than 300000 nM; in assay [2], less than 100 nM; in assay [3] it was less than 100 nM; in assay [4] it was less than 300 nM. In addition, the inhibition at 0.1 µM in the assay on TNF-α was no less than 50%.
As for `[2H][C@]1(N2Cc3c(NCc4cccc(OC)c4F)cccc3C2=O)CCC(=O)NC1=O` [Compound A357, (S)-3-deuterium-3-(4-((2-fluoro-3-methoxybenzyl)amino)-1-oxoisoindolin-2-yl)piperidine-2,6-dione], the IC50 was 100 to 400 nM in assay [1], less than 100 nM in assay [2], 401 to 300000 nM in assay [3] and less than 300 nM in assay [4]. In the assay with TNF-α, the inhibition at 0.1 µM was no less than 50%.
With `[2H][C@]1(N2Cc3c(OCc4cc(CN5CCOCC5)ccc4F)cccc3C2=O)CCC(=O)NC1=O` [Compound A403, (S)-3-deuterium-3-(4-((2-fluoro-5-(morpholinomethyl)benzyl)oxy)-1-oxoisoindolin-2-yl)piperidine-2,6-dione], the IC50 in assay [1] was greater than 300000 nM; in assay [2], less than 100 nM; in assay [3], 401 to 300000 nM; in assay [4], less than 300 nM. In addition, the inhibition at 0.1 µM in the assay on TNF-α is no less than 50%.
For the compound `COc1ccc(F)c(CNc2cccc3c2CN(C2CCC(=O)NC2=O)C3=O)c1` (stereo not drawn) [Compound A195, 3-(4-((2-fluoro-5-methoxybenzyl)amino)-1-oxoisoindolin-2-yl)piperidine-2,6-dione], the IC50 in assay [1] was greater than 300000 nM; in assay [2], less than 100 nM; in assay [3], greater than 300000 nM; in assay [4], less than 300 nM.
Turning to `Nc1cccc2c1CN(C1CCC(=O)NC1=O)C2=O` (stereo not drawn) [Lenalidomide, 3-(4-amino-1,3-dihydro-1-oxo-2H-isoindole-2-yl)-piperidine-2,6-dione, reference compound], the IC50 in assay [1] was greater than 300000 nM; in assay [2], 100 to 400 nM; in assay [3] it was greater than 300000 nM; in assay [4], no less than 300 nM. Also, the inhibition at 0.1 µM with TNF-α is less than 50%.
With `[2H][C@]1(N2Cc3c(N)cc(F)cc3C2=O)CCC(=O)NC1=O` [Compound I-31], the IC50 was greater than 300000 nM in assay [1], less than 100 nM in assay [2], 401 to 300000 nM in assay [3] and less than 300 nM in assay [4]. In addition, in the assay with TNF-α, the inhibition at 0.1 µM is greater than 50%.
`Nc1cc(F)cc2c1CN(C1CCC(=O)NC1=O)C2=O` (stereo not drawn) [Compound I-28, 3-(4-amino-6-fluoro-1-oxoisoindolin-2-yl)piperidine-2,6-dione]: the IC50 was greater than 300000 nM in assay [1], less than 100 nM in assay [2], greater than 300000 nM in assay [3] and less than 300 nM in assay [4]. Moreover, the inhibition at 0.1 µM in the assay on TNF-α is greater than 50%.
On to `COc1ccc(F)c(CNc2cccc3c2CN([C@@H]2CCC(=O)NC2=O)C3=O)c1` [Compound A341, (R)-3-(4-((2-fluoro-5-methoxybenzyl)amino)-1-oxoisoindolin-2-yl)piperidine-2,6-dione], for which, in the assay with TNF-α, the inhibition at 0.1 µM is less than 50%. Moreover, the IC50 in assay [4] was less than 300 nM.
For the compound `[2H][C@]1(N2Cc3c(NCc4cc(OC)ccc4F)cccc3C2=O)CCC(=O)NC1=O` [Compound A343, (S)-3-deuterium-3-(4-((2-fluoro-5-methoxybenzyl)amino)-1-oxoisoindolin-2-yl)piperidine-2,6-dione], the inhibition at 0.1 µM with TNF-α is no less than 50%. The IC50 in assay [4] is less than 300 nM.
Take `NS(=O)(=O)c1cccc(CNc2cccc3c2CN(C2CCC(=O)NC2=O)C3=O)c1F` (stereo not drawn) [Compound A389, 3-(((2-(2,6-dioxopiperidin-3-yl)-1-oxoisoindolin-4-yl)amino)methyl)-2-fluorobenzenesulfonamide]: the inhibition at 0.1 µM in the assay on TNF-α is less than 50%. The IC50 in assay [4] is less than 300 nM.
`O=C1CCC(N2Cc3c(NCc4cc(OCCO)ccc4F)cccc3C2=O)C(=O)N1` (stereo not drawn) [Compound A375, 3-(4-((2-fluoro-5-(2-hydroxyethoxy)benzyl)amino)-1-oxoisoindolin-2-yl)piperidine-2,6-dione]: the inhibition at 0.1 µM in the assay on TNF-α is less than 50%. For the same compound, the IC50 in assay [4] is no less than 300 nM.
For the compound `O=C1CCC(N2Cc3c(NCc4cc(OCCCN5CCOCC5)ccc4F)cccc3C2=O)C(=O)N1` (stereo not drawn) [Compound A369, 3-(4-((2-fluoro-5-(3-morpholinopropoxy)benzyl)amino)-1-oxoisoindolin-2-yl)piperidine-2,6-dione], the inhibition at 0.1 µM in the assay on TNF-α was no less than 50%. Besides, the IC50 in assay [4] was less than 300 nM.
